# Measured values published in patent US11173151B2, “Substituted triazole derivatives and uses thereof” (BAYER AKTIENGESELLSCHAFT, priority 2017, dated 2021).
# How the values were obtained:
# [1] = molecular target: T1, human V1a receptor (Homo sapiens, UniProt P37288); experiment: Cellular in vitro assay for determining vasopressin receptor activity, V1a receptor cell line (CHO, aequorin luminescence); format: cell-based; conditions: for IC50: CHO cell line transfected with human V1a receptor, [Arg]-vasopressin at EC50 concentration, read-out: IC50 hV1a; for ratio IC50 hV2/hV1a: selectivity ratio IC50 hV2 / IC50 hV1a
# T1 construct: expressed in transfected cells; host or cells: CHO K1 (ATCC), also stably transfected with a modified aequorin
# T1 sequence (P37288 whole entry): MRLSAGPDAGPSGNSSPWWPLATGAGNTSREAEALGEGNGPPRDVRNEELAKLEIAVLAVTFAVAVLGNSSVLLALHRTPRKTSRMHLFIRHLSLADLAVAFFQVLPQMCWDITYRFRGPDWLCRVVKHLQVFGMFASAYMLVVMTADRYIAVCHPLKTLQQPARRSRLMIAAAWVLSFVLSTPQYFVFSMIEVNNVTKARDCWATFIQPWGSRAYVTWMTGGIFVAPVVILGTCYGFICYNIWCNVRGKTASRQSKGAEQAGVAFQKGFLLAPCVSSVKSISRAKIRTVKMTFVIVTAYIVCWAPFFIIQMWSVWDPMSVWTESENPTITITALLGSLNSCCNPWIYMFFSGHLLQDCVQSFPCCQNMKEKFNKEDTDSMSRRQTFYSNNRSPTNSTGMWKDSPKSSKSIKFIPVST
# Procedure, shortened: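 Cells were plated the day before in medium containing 5 μg/ml coelenterazine and kept at 37° C. Compounds at various concentrations were then added for 10 minutes. Next, [Arg]-vasopressin at EC50 was applied and light output recorded at once, yielding IC50.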
# [2] = molecular target: T2, human V2 receptor (Homo sapiens, UniProt P30518); experiment: Cellular in vitro assay for determining vasopressin receptor activity, V2 receptor cell line (CHO, CRE-luciferase); format: cell-based; conditions: CHO cell line transfected with human V2 receptor; [Arg8]-vasopressin at EC50 concentration, 3 hours; read-out: IC50 hV2
# T2 construct: expressed in transfected cells; host or cells: CHO K1 (ATCC) expressing firefly luciferase under a CRE-responsive promoter
# T2 sequence (P30518 whole entry): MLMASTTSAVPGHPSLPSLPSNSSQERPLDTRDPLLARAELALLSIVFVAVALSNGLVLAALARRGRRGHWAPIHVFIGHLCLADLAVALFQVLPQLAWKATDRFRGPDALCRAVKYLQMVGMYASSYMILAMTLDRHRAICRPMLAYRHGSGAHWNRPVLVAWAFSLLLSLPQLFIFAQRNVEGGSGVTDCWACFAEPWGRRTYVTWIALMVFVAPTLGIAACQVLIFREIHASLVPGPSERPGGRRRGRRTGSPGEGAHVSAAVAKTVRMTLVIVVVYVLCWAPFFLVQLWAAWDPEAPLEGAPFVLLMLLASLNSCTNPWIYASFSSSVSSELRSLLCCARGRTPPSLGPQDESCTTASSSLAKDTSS
IC50 [1],ratio IC50 hV2/hV1a [1],IC50 [2],SMILES
3.55 nM,859.2,3050 nM,O=C(Nc1ncccc1-n1cnc(Cn2nc(-c3ccc(Cl)cc3)n(C[C@H](O)C(F)(F)F)c2=O)n1)c1ccncc1 [Example 157]
10.6 nM,360.2,3800 nM,CC(C)(C)CC(=O)Nc1ncccc1-n1cnc(Cn2nc(-c3ccc(Cl)cc3)n(C[C@H](O)C(F)(F)F)c2=O)n1 [Example 158]
52.5 nM,35.2,1850 nM,O=C(Nc1ncccc1-n1cnc(Cn2nc(-c3ccc(Cl)cc3)n(C[C@H](O)C(F)(F)F)c2=O)n1)C1CCCCC1 [Example 159]
26.5 nM,18.9,500 nM,Cc1cc(C(=O)Nc2ncccc2-n2cnc(Cn3nc(-c4ccc(Cl)cc4)n(C[C@H](O)C(F)(F)F)c3=O)n2)no1 [Example 161]
300 nM,24.0,7200 nM,Cc1cccc(C(=O)Nc2ncccc2-n2cnc(Cn3nc(-c4ccc(Cl)cc4)n(C[C@H](O)C(F)(F)F)c3=O)n2)c1 [Example 162]
28 nM,46.4,1300 nM,O=C(Nc1ncccc1-n1cnc(Cn2nc(-c3ccc(Cl)cc3)n(C[C@H](O)C(F)(F)F)c2=O)n1)c1ccno1 [Example 163]
660 nM,2.0,1300 nM,Cc1cn(CC(=O)Nc2ncccc2-n2cnc(Cn3nc(-c4ccc(Cl)cc4)n(C[C@H](O)C(F)(F)F)c3=O)n2)nn1 [Example 164]
66 nM,9.6,635 nM,O=C(CC1CCCCO1)Nc1ncccc1-n1cnc(Cn2nc(-c3ccc(Cl)cc3)n(C[C@H](O)C(F)(F)F)c2=O)n1 (stereo partly shown) [Example 165]
39 nM,51.3,2000 nM,O=C(Nc1ncccc1-n1cnc(Cn2nc(-c3ccc(Cl)cc3)n(C[C@H](O)C(F)(F)F)c2=O)n1)C1CCCCO1 (stereo partly shown) [Example 166]
19.3 nM,64.7,1250 nM,"O=C(Nc1ncccc1-n1cnc(Cn2nc(-c3ccc(Cl)cc3)n(C[C@H](O)C(F)(F)F)c2=O)n1)OCC(F)(F)F [Example 167, 2,2,2-Trifluoroethyl {3-[3-({3-(4-chlorophenyl)-5-oxo-4-[(2S)-3,3,3-trifluoro-2-hydroxypropyl]-4,5-dihydro-1H-1,2,4-triazol-1-yl}methyl)-1H-1,2,4-triazol-1-yl]pyridin-2-yl}carbamate]"
28.5 nM,54.1,1540 nM,"O=C(NCC(F)(F)F)c1ccccc1-n1cnc(Cn2nc(-c3ccc(Cl)cc3)n(C[C@@H](O)C(F)(F)F)c2=O)n1 [Example 168, 2-[3-({3-(4-Chlorophenyl)-5-oxo-4-[(2R)-3,3,3-trifluoro-2-hydroxypropyl]-4,5-dihydro-1H-1,2,4-triazol-1-yl}methyl)-1H-1,2,4-triazol-1-yl]-N-(2,2,2-trifluoroethyl)benzamide]"
2.36 nM,118.5,280 nM,"CNC(=O)c1ccccc1-n1cnc(Cn2nc(-c3ccc(Cl)cc3)n(C[C@H](O)C(F)(F)F)c2=O)n1 [Example 169, 2-[3-({3-(4-Chlorophenyl)-5-oxo-4-[(2S)-3,3,3-trifluoro-2-hydroxypropyl]-4,5-dihydro-1H-1,2,4-triazol-1-yl}methyl)-1H-1,2,4-triazol-1-yl]-N-methylbenzamide]"
139 nM,52.8,7350 nM,"O=C1CN(C(=O)c2ccccc2-n2cnc(Cn3nc(-c4ccc(Cl)cc4)n(C[C@H](O)C(F)(F)F)c3=O)n2)CCN1 [Example 171, 4-{2-[3-({3-(4-Chlorophenyl)-5-oxo-4-[(2S)-3,3,3-trifluoro-2-hydroxypropyl]-4,5-dihydro-1H-1,2,4-triazol-1-yl}methyl)-1H-1,2,4-triazol-1-yl]benzoyl}piperazin-2-one]"
3.25 nM,,2120 nM,"O=C(c1ccccc1-n1cnc(Cn2nc(-c3ccc(Cl)cc3)n(C[C@H](O)C(F)(F)F)c2=O)n1)N1CCOCC1 [Example 172, 5-(4-Chlorophenyl)-2-({1-[2-(morpholin-4-ylcarbonyl)phenyl]-1H-1,2,4-triazol-3-yl}methyl)-4-[(2S)-3,3,3-trifluoro-2-hydroxypropyl]-2,4-dihydro-3H-1,2,4-triazol-3-one]"
4.28 nM,608.2,2610 nM,"CC(C)(N)CNC(=O)c1ccccc1-n1cnc(Cn2nc(-c3ccc(Cl)cc3)n(C[C@H](O)C(F)(F)F)c2=O)n1 [Example 173, N-(2-Amino-2-methylpropyl)-2-[3-({3-(4-chlorophenyl)-5-oxo-4-[(2S)-3,3,3-trifluoro-2-hydroxypropyl]-4,5-dihydro-1H-1,2,4-triazol-1-yl}methyl)-1H-1,2,4-triazol-1-yl]benzamide]"
5.01 nM,51.4,258 nM,"O=C(NCC(F)(F)F)c1ccccc1-n1cnc(Cn2nc(-c3ccc(Cl)cc3)n(C[C@H](O)C(F)(F)F)c2=O)n1 [Example 174, 2-[3-({3-(4-Chlorophenyl)-5-oxo-4-[(2S)-3,3,3-trifluoro-2-hydroxypropyl]-4,5-dihydro-1H-1,2,4-triazol-1-yl}methyl)-1H-1,2,4-triazol-1-yl]-N-(2,2,2-trifluoroethyl)benzamide]"
10.3 nM,150.7,1540 nM,"O=C(c1ccccc1-n1cnc(Cn2nc(-c3ccc(Cl)cc3)n(C[C@H](O)C(F)(F)F)c2=O)n1)N1CCC(F)(F)CC1 [Example 175, 5-(4-Chlorophenyl)-2-[(1-{2-[(4,4-difluoropiperidin-1-yl)carbonyl]phenyl}-1H-1,2,4-triazol-3-yl)methyl]-4-[(2S)-3,3,3-trifluoro-2-hydroxypropyl]-2,4-dihydro-3H-1,2,4-triazol-3-one]"
15 nM,83.3,1250 nM,"O=C(NC1CS(=O)(=O)C1)c1ccccc1-n1cnc(Cn2nc(-c3ccc(Cl)cc3)n(C[C@H](O)C(F)(F)F)c2=O)n1 [Example 176, 2-[3-({3-(4-Chlorophenyl)-5-oxo-4-[(2S)-3,3,3-trifluoro-2-hydroxypropyl]-4,5-dihydro-1H-1,2,4-triazol-1-yl}methyl)-1H-1,2,4-triazol-1-yl]-N-(1,1-dioxidothietan-3-yl)benzamide]"
9.9 nM,69.7,690 nM,"O=C(NCCN1CCCC1=O)c1ccccc1-n1cnc(Cn2nc(-c3ccc(Cl)cc3)n(C[C@H](O)C(F)(F)F)c2=O)n1 [Example 177, 2-[3-({3-(4-Chlorophenyl)-5-oxo-4-[(2S)-3,3,3-trifluoro-2-hydroxypropyl]-4,5-dihydro-1H-1,2,4-triazol-1-yl}methyl)-1H-1,2,4-triazol-1-yl]-N-[2-(2-oxopyrrolidin-1-yl)ethyl]benzamide]"
18.5 nM,97.3,1800 nM,"O=C1CC[C@@H](CNC(=O)c2ccccc2-n2cnc(Cn3nc(-c4ccc(Cl)cc4)n(C[C@H](O)C(F)(F)F)c3=O)n2)N1 [Example 178, 2-[3-({3-(4-Chlorophenyl)-5-oxo-4-[(2S)-3,3,3-trifluoro-2-hydroxypropyl]-4,5-dihydro-1H-1,2,4-triazol-1-yl}methyl)-1H-1,2,4-triazol-1-yl]-N-{[(2S)-5-oxopyrrolidin-2-yl]methyl}benzamide]"
6.1 nM,278.7,1700 nM,"O=C1CC[C@H](CNC(=O)c2ccccc2-n2cnc(Cn3nc(-c4ccc(Cl)cc4)n(C[C@H](O)C(F)(F)F)c3=O)n2)N1 [Example 179, 2-[3-({3-(4-Chlorophenyl)-5-oxo-4-[(2S)-3,3,3-trifluoro-2-hydroxypropyl]-4,5-dihydro-1H-1,2,4-triazol-1-yl}methyl)-1H-1,2,4-triazol-1-yl]-N-{[(2R)-5-oxopyrrolidin-2-yl]methyl}benzamide]"
68 nM,43.4,2950 nM,"CC(=O)N[C@H]1CCN(C(=O)c2ccccc2-n2cnc(Cn3nc(-c4ccc(Cl)cc4)n(C[C@H](O)C(F)(F)F)c3=O)n2)C1 [Example 180, N-[(3S)-1-{2-[3-({3-(4-Chlorophenyl)-5-oxo-4-[(2S)-3,3,3-trifluoro-2-hydroxypropyl]-4,5-dihydro-1H-1,2,4-triazol-1-yl}methyl)-1H-1,2,4-triazol-1-yl]benzoyl}pyrrolidin-3-yl]acetamide]"
195 nM,,18700 nM,"CC1(C)CN(C(=O)c2ccccc2-n2cnc(Cn3nc(-c4ccc(Cl)cc4)n(C[C@H](O)C(F)(F)F)c3=O)n2)CCN1 [Example 181, 5-(4-Chlorophenyl)-2-[(1-{2-[(3,3-dimethylpiperazin-1-yl)carbonyl]phenyl}-1H-1,2,4-triazol-3-yl)methyl]-4-[(2S)-3,3,3-trifluoro-2-hydroxypropyl]-2,4-dihydro-3H-1,2,4-triazol-3-one]"
24 nM,85.4,2050 nM,"O=C(NCCC(F)(F)F)c1ccccc1-n1cnc(Cn2nc(-c3ccc(Cl)cc3)n(C[C@H](O)C(F)(F)F)c2=O)n1 [Example 182, 2-[3-({3-(4-Chlorophenyl)-5-oxo-4-[(2S)-3,3,3-trifluoro-2-hydroxypropyl]-4,5-dihydro-1H-1,2,4-triazol-1-yl}methyl)-1H-1,2,4-triazol-1-yl]-N-(3,3,3-trifluoropropyl)benzamide]"
28.5 nM,108.8,3100 nM,"O=C(NCC1CS(=O)(=O)C1)c1ccccc1-n1cnc(Cn2nc(-c3ccc(Cl)cc3)n(C[C@H](O)C(F)(F)F)c2=O)n1 [Example 184, 2-[3-({3-(4-Chlorophenyl)-5-oxo-4-[(2S)-3,3,3-trifluoro-2-hydroxypropyl]-4,5-dihydro-1H-1,2,4-triazol-1-yl}methyl)-1H-1,2,4-triazol-1-yl]-N-[(1,1-dioxidothietan-3-yl)methyl]benzamide]"
